Measurements reported in ChEMBL document CHEMBL4190267, “Discovery of potent molecular chimera (CM358) to treat human metastatic melanoma” (Eur J Med Chem, 2017).
Active and inactive are the calls of the source. The calls are words filed in the database; no cut-off is given here.

What was measured:
WM 266-4 [1] = experiment: Induction of apoptosis in human WM266.4 cells assessed as early apoptotic cells at 10 uM after 2 hrs by Annexin V-FITC/propidium iodide staining based flow cytometry (reference value: 2.64%); assay type: functional
WM 266-4 [2] = experiment: Growth inhibition of human WM266.4 cells at 5 uM incubated up to 72 hrs by XTT assay relative to control; assay type: functional; details: WM 266-4, 72 h, read-out: GI
WM 266-4 [3] = experiment: Growth inhibition of human WM266.4 cells at 25 uM after 24 hrs by XTT assay; assay type: functional, cell-based
[4] = Half life in pH 7.4 PBS buffer by LC-MS analysis; assay type: physicochemical
[5] = Half life in human WM266.4 cells by LC-MS analysis; assay type: ADME, cell-based, WM 266-4
[6] = Drug metabolism in human WM266.4 cells assessed as amonafide after 48 hrs by LC-MS analysis; assay type: ADME, cell-based; details: wm 266-4, 48 h
WM 266-4 [7] = experiment: Induction of apoptosis in human WM266.4 cells assessed as late apoptotic cells at 10 uM after 2 hrs by Annexin V-FITC/propidium iodide staining based flow cytometry (reference value: 1.41%); assay type: functional
WM 266-4 [8] = experiment: Induction of apoptosis in human WM266.4 cells assessed as live cells at 10 uM after 8 hrs by Annexin V-FITC/propidium iodide staining based flow cytometry (reference value: 94.7%); assay type: functional
WM 266-4 [9] = experiment: Induction of apoptosis in human WM266.4 cells assessed as necrotic cells at 10 uM after 8 hrs by Annexin V-FITC/propidium iodide staining based flow cytometry (reference value: 1.22%); assay type: functional
WM 266-4 [10] = experiment: Induction of apoptosis in human WM266.4 cells assessed as live cells at 10 uM after 24 hrs by Annexin V-FITC/propidium iodide staining based flow cytometry (reference value: 94.7%); assay type: functional
WM 266-4 [11] = experiment: Induction of apoptosis in human WM266.4 cells assessed as necrotic cells at 10 uM after 24 hrs by Annexin V-FITC/propidium iodide staining based flow cytometry (reference value: 1.22%); assay type: functional
WM 266-4 [12] = experiment: Induction of apoptosis in human WM266.4 cells assessed as live cells at 25 uM after 2 hrs by Annexin V-FITC/propidium iodide staining based flow cytometry (reference value: 94.7%); assay type: functional
WM 266-4 [13] = experiment: Induction of apoptosis in human WM266.4 cells assessed as late apoptotic cells at 25 uM after 2 hrs by Annexin V-FITC/propidium iodide staining based flow cytometry (reference value: 1.41%); assay type: functional
WM 266-4 [14] = experiment: Induction of apoptosis in human WM266.4 cells assessed as necrotic cells at 25 uM after 2 hrs by Annexin V-FITC/propidium iodide staining based flow cytometry (reference value: 1.22%); assay type: functional
WM 266-4 [15] = experiment: Induction of apoptosis in human WM266.4 cells assessed as early apoptotic cells at 25 uM after 8 hrs by Annexin V-FITC/propidium iodide staining based flow cytometry (reference value: 2.64%); assay type: functional
WM 266-4 [16] = experiment: Induction of apoptosis in human WM266.4 cells assessed as live cells at 25 uM after 24 hrs by Annexin V-FITC/propidium iodide staining based flow cytometry (reference value: 94.7%); assay type: functional
WM 266-4 [17] = experiment: Induction of apoptosis in human WM266.4 cells assessed as early apoptotic cells at 25 uM after 24 hrs by Annexin V-FITC/propidium iodide staining based flow cytometry (reference value: 2.64%); assay type: functional
WM 266-4 [18] = experiment: Induction of apoptosis in human WM266.4 cells assessed as necrotic cells at 25 uM after 24 hrs by Annexin V-FITC/propidium iodide staining based flow cytometry (reference value: 1.22%); assay type: functional
WM 266-4 [19] = experiment: Induction of necrosis in human WM266.4 cells at 25 uM after 2 to 6 hrs by Annexin V-FITC/propidium iodide staining based fluorescence microscopic method; assay type: functional, cell-based
WM 266-4 [20] = experiment: Cell cycle arrest in human WM266.4 cells assessed as accumulation at S phase at 10 uM after 2 hrs by propidium iodide staining based flow cytometry (reference value: 27%); assay type: functional
WM 266-4 [21] = experiment: Cell cycle arrest in human WM266.4 cells assessed as accumulation at G2 phase at 10 uM after 2 hrs by propidium iodide staining based flow cytometry (reference value: 11%); assay type: functional
WM 266-4 [22] = experiment: Cell cycle arrest in human WM266.4 cells assessed as accumulation at G1 phase at 10 uM after 8 hrs by propidium iodide staining based flow cytometry (reference value: 59%); assay type: functional
WM 266-4 [23] = experiment: Cell cycle arrest in human WM266.4 cells assessed as accumulation at G1 phase at 10 uM after 24 hrs by propidium iodide staining based flow cytometry (reference value: 59%); assay type: functional
WM 266-4 [24] = experiment: Cell cycle arrest in human WM266.4 cells assessed as accumulation at S phase at 10 uM after 24 hrs by propidium iodide staining based flow cytometry (reference value: 27%); assay type: functional
[25] = target: DNA topoisomerase 2-alpha (Homo sapiens) (UniProt P11388); experiment: Inhibition of human topoisomerase-2alpha assessed as reduction in enzyme-mediated decatenation at 100 uM using kinetoplast DNA as substrate after 25 mins by ethidium bromide staining based agarose gel electrophoresis method
Mus musculus = experiment: Toxicity in athymic Foxn1 nu mouse assessed as abnormal gross behavioral changes at 10 mg/kg, ip administered once daily for 3 days followed by resting period of 4 days repeated for 4 weeks; assay type: organism-based; details: in vivo
WM 266-4 [26] = experiment: Antitumor activity against human WM266.4 cells xenografted in athymic Foxn1 nu mouse assessed as tumor growth inhibition at 5 mg/kg, ip administered once daily for 7 days followed by resting period of 2 days repeated for 4 weeks starting from 5 days post tumor inoculation measured on day 21; assay type: functional, organism-based

DNA topoisomerase 2-alpha (Homo sapiens), sequence (P11388 whole entry): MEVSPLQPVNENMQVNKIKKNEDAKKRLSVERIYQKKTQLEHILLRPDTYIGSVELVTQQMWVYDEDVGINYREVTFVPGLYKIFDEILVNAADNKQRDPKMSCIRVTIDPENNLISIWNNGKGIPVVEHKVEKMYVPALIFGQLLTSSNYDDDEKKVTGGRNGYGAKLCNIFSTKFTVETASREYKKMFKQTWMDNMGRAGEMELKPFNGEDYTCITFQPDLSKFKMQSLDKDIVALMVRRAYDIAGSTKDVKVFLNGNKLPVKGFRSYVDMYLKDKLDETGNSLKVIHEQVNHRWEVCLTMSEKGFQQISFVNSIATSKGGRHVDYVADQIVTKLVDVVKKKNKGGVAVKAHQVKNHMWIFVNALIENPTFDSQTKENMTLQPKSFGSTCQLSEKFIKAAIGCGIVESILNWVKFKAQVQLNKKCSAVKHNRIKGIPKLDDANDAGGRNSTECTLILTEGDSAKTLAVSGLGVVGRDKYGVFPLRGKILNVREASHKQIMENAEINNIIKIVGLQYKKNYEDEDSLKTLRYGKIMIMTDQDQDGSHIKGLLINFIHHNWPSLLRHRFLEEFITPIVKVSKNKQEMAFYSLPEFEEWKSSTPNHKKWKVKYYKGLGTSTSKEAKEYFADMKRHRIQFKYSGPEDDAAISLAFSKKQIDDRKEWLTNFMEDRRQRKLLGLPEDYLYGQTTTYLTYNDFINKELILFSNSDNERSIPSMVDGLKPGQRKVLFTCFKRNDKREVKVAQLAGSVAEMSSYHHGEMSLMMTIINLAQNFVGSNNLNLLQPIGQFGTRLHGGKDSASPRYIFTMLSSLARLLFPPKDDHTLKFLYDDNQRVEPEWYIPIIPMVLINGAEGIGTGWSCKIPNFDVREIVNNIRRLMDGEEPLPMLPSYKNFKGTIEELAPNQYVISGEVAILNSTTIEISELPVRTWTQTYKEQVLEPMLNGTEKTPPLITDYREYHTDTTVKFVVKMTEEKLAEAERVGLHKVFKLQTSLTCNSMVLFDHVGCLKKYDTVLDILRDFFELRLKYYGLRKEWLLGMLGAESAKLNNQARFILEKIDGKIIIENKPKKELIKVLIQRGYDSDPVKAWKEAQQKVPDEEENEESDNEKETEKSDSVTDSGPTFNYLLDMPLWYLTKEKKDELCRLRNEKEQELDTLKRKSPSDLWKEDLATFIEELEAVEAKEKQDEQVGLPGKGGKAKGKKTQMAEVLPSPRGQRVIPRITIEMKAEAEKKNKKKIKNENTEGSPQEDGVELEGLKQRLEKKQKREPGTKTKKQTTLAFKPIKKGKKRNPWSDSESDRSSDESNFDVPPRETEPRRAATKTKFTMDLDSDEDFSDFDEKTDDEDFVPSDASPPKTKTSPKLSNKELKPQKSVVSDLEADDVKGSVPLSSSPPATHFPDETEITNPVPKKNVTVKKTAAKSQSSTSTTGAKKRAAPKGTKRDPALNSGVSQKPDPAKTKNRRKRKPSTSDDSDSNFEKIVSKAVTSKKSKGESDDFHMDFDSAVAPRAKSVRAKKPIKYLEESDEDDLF

**Q.** Which Activity (WM 266-4 [1]) does the source give for CN(C)CCN1C(=O)c2cccc3cc(NC(=O)CCCc4ccc(N(CCCl)CCCl)cc4)cc(c23)C1=O.O=C(O)C(F)(F)F here?
**A.** The Activity was 5.05%.

**Q.** And the inhibition of growth at 5 µM (WM 266-4 [2])?
**A.** The inhibition of growth at 5 µM was 100%.

**Q.** And the “growth inhibition (GI)” value (WM 266-4 [3])?
**A.** The value was “Active”.

**Q.** What about the half-life [4] of the same compound?
**A.** The half-life was 25 h.

**Q.** And the half-life [5]?
**A.** Its half-life is 25 h.

**Q.** What about the Drug metabolism [6] of the same compound?
**A.** Its Drug metabolism is “Metabolite_Notdetected”.

**Q.** What about the Activity (WM 266-4 [7]) of the same compound?
**A.** Its Activity is 1.46%.

**Q.** What about the Activity (WM 266-4 [8]) of the same compound?
**A.** Its Activity is 82.4%.

**Q.** And the Activity (WM 266-4 [9])?
**A.** The Activity was 9.33%.

**Q.** And the Activity (WM 266-4 [10])?
**A.** Its Activity is 84.5%.

**Q.** And the Activity (WM 266-4 [11])?
**A.** Its Activity is 10.3%.

**Q.** What about the Activity (WM 266-4 [12]) of the same compound?
**A.** Its Activity is 72.9%.

**Q.** What about the Activity (WM 266-4 [13]) of the same compound?
**A.** Its Activity is 3.94%.

**Q.** What about the Activity (WM 266-4 [14]) of the same compound?
**A.** Its Activity is 16.4%.

**Q.** And the Activity (WM 266-4 [15])?
**A.** Its Activity is 5.46%.

**Q.** And the Activity (WM 266-4 [16])?
**A.** Its Activity is 40%.

**Q.** And the Activity (WM 266-4 [17])?
**A.** The Activity was 18.8%.

**Q.** What about the Activity (WM 266-4 [18]) of the same compound?
**A.** The Activity was 21.4%.

**Q.** What about the Activity (WM 266-4 [19]) of the same compound?
**A.** The Activity was “Active”.

**Q.** What about the Activity (WM 266-4 [20]) of the same compound?
**A.** Its Activity is 45%.

**Q.** What about the Activity (WM 266-4 [21]) of the same compound?
**A.** The Activity was 15%.

**Q.** What about the Activity (WM 266-4 [22]) of the same compound?
**A.** The Activity was 35%.

**Q.** And the Activity (WM 266-4 [23])?
**A.** The Activity was 36%.

**Q.** What about the Activity (WM 266-4 [24]) of the same compound?
**A.** Its Activity is 38%.

**Q.** And the inhibition [25]?
**A.** Its inhibition is “Active”.

**Q.** And the Activity (Mus musculus)?
**A.** The Activity was “Non-Toxic”.

**Q.** And the TGI (WM 266-4 [26])?
**A.** The TGI was “inactive”.
